Source: ChEMBL document CHEMBL1201862, “PubChem BioAssay data set” (2004)
Calls of active or inactive are those of the source.

What was measured:
[1] = HEK293 Cytotoxicity Assay Measured in Cell-Based System Using Plate Reader - 7071-01_Inhibitor_Dose_CherryPick_Activity_Set2.; assay type: functional
HeLa [2] = assay: viability loss in HeLa cells – cell-based, ATP luminescence, cherry-pick samples, cytotoxicity control, dose response (AID 687004); assay type: functional; conditions: Homo sapiens
HEK293 = assay: viability loss in HEK293T cells – cell-based, ATP luminescence, cherry-pick samples, cytotoxicity control, dose response (AID 687005); assay type: functional; conditions: Homo sapiens;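 note: cells exposed to compound for 48 hours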
[3] = activation of miR-122 Renilla sensor silencing – cell-based, Huh7 psiCHECK-miR122, Renilla luciferase, cherry-picked, dose response (AID 651956); assay type: functional;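 note: huh7 hepatoma cells stably carrying a psiCHECK-2 miR-122 sensor plasmid; renilla luciferase signal reporting endogenous miR-122 activity after 48 h compound exposure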
[4] = general mammalian cell viability loss – activator set, cherry-pick, cytotoxicity control for miR-122 modulator project, dose response (AID 720690); assay type: functional, cell-based;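 note: HEK293T human cells scored for general mammalian cytotoxicity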
[5] = biological target: Muscarinic acetylcholine receptor M5 (Homo sapiens, UniProt P08912); assay: potentiation of ACh response at human M5 – cell-based, concentration-response curve, dose response (AID 651878); assay type: functional
[6] = HGIII-sPLA2 enzyme inhibition potency – biochemical, QFRET, IC50, dose response (AID 743457);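 note: green fluorescence rise as the enzyme cleaves BODIPY PC-A2 in liposomes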
Protein Wnt-3a [7] = biological target: T1, Protein Wnt-3a (Mus musculus, UniProt P27467); assay: SAR analysis of small molecule antagonists of Gli-SUFU in a Wnt3a luminescent reporter assay.; assay type: functional
[8] = biological target: Metabotropic glutamate receptor 5 (Rattus norvegicus, UniProt P31424); assay: Identification of a glycine sulfonamide based non-MPEP site positive allosteric potentiator (PAM) of mGlu5 (calcium_assay).; assay type: functional
[9] = viability loss in HepG2 hepatoma cells – cell-based, ATP luminescence, cherry-pick, activator set 2, cytotoxicity control, dose response (AID 1053143); assay type: functional
[10] = viability loss in THP-1 monocytes – THP-1 cells, cytotoxicity control for Vif-APOBEC3G degradation inhibitor project, dose response (AID 1117359); assay type: functional; conditions: THP-1
[11] = viability loss in CEM21 cells – cell-based, plate reader, dry powder, cytotoxicity control, dose response (AID 687026); assay type: functional
[12] = blockers of HIV-1 ZM109 envelope-driven cell-cell fusion – HeLa effector, CEM target cells, luciferase, cherry-pick, dose response (AID 652058); assay type: functional, cell-based;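 note: luciferase signal from HIV-1 Env mediated cell-cell fusion of effector and target cells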
[13] = viability loss in CEM21 cells – cell-based, CellTiter-Glo luminescence, cherry-picked, cytotoxicity control for viral fusion inhibitor project, dose response (AID 652042); assay type: functional;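 note: potency for signal decrease meaning cytotoxicity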
[14] = blockers of HIV-1 envelope-mediated cell-cell fusion – cherry-pick, dose response (AID 652057); assay type: functional, cell-based
[15] = inhibition of Env-driven cell fusion – HIV entry, plate reader, dry powder, dose response (AID 687023); assay type: functional, cell-based
[16] = T. cruzi growth inhibition in host cells, dose response, cell-based, plate reader, dry powder, set 2 (AID 652275); assay type: functional
[17] = Late stage assay provider results from the probe development effort to identify inhibitors of the Plasmodium falciparum M18 Aspartyl Aminopeptidase (M18AAP): radiolabel-based cell-based dose response assay to identify compounds that inhibit P. falciparum growth in RBCs, Set 2..; assay type: functional
[18] = anti-trypanosomal activity in BESM host cells – imaging, CA-I/72 strain, bovine embryo skeletal muscle, dry powder, dose response (AID 651885); assay type: functional, cell-based
P388/ADR = assay: cells; assay type: functional; conditions: Mus musculus
[19] = viability loss in HeLa cells – cytotoxicity control for MgcRacGAP inhibitor project, dose response (AID 624300); assay type: functional
HeLa [20] = assay: viability loss in HeLa cells – cell-based, 24 h, cherry-picked samples, cytotoxicity control, dose response (AID 504726); assay type: functional, Homo sapiens; conditions: Homo sapiens, 24 h;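 note: potency for cytotoxicity as loss of luminescence signal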
[21] = biological target: T2, Small ubiquitin-related modifier 1 (Homo sapiens, UniProt P63165); assay: SUMO1 protein interaction blockers, potency – biochemical, fluorescence polarization, uHTS hits, dose response (AID 624382); assay type: functional; conditions: read-out: IC50_Mean
SN12K1 = assay: cells; assay type: functional; conditions: Homo sapiens
[22] = biological target: DNA repair protein RAD52 homolog (Homo sapiens, UniProt P43351); assay type: functional, biochemical
P388 = assay: cells; assay type: functional; conditions: Mus musculus
[23] = biological target: T3, Rac GTPase-activating protein 1 (Homo sapiens, UniProt Q9H0H5); assay: blockers of MgcRacGAP-driven Rac1 GTP hydrolysis – biochemical, ADP Hunter fluorescence, primary and confirmatory, confirmation (AID 624330); assay type: functional
T3 sequence (Q9H0H5 whole entry): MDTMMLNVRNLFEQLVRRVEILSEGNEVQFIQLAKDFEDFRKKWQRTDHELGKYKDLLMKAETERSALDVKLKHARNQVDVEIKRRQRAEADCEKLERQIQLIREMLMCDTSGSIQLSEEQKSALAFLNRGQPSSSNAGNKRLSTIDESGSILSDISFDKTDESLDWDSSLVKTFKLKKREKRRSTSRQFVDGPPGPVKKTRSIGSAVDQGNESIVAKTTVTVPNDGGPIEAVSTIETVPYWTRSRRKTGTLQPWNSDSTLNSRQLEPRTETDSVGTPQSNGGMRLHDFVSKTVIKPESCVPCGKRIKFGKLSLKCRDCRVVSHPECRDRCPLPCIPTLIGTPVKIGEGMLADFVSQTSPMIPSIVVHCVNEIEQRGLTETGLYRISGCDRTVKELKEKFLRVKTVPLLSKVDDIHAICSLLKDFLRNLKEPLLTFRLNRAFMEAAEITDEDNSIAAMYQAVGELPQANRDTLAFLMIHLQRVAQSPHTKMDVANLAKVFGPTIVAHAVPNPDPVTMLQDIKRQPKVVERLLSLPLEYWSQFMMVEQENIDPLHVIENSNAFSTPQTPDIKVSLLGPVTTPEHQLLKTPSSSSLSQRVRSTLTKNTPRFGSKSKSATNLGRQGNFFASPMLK

[24] = biological target: T2, Small ubiquitin-related modifier 1; assay: SUMO1 protein-protein binding blockers, potency – biochemical, FRET, dose response (AID 624383); assay type: functional; conditions: read-out: IC50_Mean
[25] = kidney cell line viability loss – HEK293T, luminescence plate reader, powder samples, set 4, cytotoxicity control, dose response (AID 651863); assay type: functional, cell-based; conditions: HEK293
[26] = toxicity to human hepatoma HepG2 cells – cell-based, cherry-picked samples, cytotoxicity control, dose response (AID 1159577); assay type: functional
[27] = viability loss in A549 lung cells – cell-based, 24 h, CellTiter-Glo luminescence, cherry-picks, cytotoxicity control, dose response (AID 1053115); assay type: functional; conditions: A549, 24 h
[28] = P. falciparum Dd2 growth inhibitors, dose response, SYBR Green, cherry-picked samples (AID 1159567); assay type: functional, cell-based
[29] = reduction of Shn3 3'UTR-driven luciferase in osteoblasts – cell-based, Clone20 osteoblasts, firefly luciferase, cherry-picked, dose response (AID 624132); assay type: functional;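 note: firefly luciferase luminescence from reporter carrying the Shn3 3'UTR in osteoblasts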
Protein Wnt-3a [30] = biological target: T1, Protein Wnt-3a; assay: antagonism of Wnt3a pathway luciferase reporter – Wnt-LIGHT cells, luminescence, selectivity assay for Gli-SUFU antagonist project, dose response (AID 651570); assay type: functional; conditions: read-out: IC50_Mean;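 note: Wnt-LIGHT reporter cells stimulated with conditioned medium from Wnt3a-producing cells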
[31] = non-specific 3'UTR reporter inhibition in Clone20-Shn3RL – cell-based, Renilla luciferase, cherry-picked, counter-screen for Shn3 inhibitor project, dose response (AID 624133); assay type: functional
[32] = Shn3 3'UTR reporter signal decrease – cell-based, Clone20 osteoblasts, firefly luciferase, cherry-pick, set 2, Schnurri-3 inhibitor project, dose response (AID 720490); assay type: functional;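 note: actives lower the luminescence signal as inhibitors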
[33] = EF1alpha-driven Renilla reporter with control 3'UTR suppression – Clone20-Shn3RL cells, dual-Glo, cherry-pick, set 2, counter-screen for Shn3 3'UTR targeting project, dose response (AID 720724); assay type: functional, cell-based; conditions: Dual-Go Shn3RL
[34] = loss of viability in HepG2 cells – cell-based, CellTiter-Glo, cherry-picked, cytotoxicity control for Shn3 inhibitor project, dose response (AID 624134); assay type: functional
[35] = viability of BHK-21 cells – cell-based, secondary screen, cytotoxicity control for flavivirus guanylyltransferase probe project (AID 624078); assay type: functional

T2 sequence (P63165 whole entry): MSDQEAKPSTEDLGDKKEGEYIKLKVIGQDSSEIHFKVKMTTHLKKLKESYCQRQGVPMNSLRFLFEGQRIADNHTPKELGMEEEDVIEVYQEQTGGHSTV
T1 sequence (P27467 whole entry): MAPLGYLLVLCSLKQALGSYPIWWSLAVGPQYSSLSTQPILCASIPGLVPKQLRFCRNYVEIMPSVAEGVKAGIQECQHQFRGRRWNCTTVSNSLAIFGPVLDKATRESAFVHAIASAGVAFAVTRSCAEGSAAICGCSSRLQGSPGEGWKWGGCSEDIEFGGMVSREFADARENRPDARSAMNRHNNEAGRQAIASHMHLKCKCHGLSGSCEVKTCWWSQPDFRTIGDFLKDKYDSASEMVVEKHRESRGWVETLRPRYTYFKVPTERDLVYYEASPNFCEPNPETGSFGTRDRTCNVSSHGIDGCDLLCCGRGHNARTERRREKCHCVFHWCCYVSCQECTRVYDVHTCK
Muscarinic acetylcholine receptor M5, sequence (P08912 whole entry): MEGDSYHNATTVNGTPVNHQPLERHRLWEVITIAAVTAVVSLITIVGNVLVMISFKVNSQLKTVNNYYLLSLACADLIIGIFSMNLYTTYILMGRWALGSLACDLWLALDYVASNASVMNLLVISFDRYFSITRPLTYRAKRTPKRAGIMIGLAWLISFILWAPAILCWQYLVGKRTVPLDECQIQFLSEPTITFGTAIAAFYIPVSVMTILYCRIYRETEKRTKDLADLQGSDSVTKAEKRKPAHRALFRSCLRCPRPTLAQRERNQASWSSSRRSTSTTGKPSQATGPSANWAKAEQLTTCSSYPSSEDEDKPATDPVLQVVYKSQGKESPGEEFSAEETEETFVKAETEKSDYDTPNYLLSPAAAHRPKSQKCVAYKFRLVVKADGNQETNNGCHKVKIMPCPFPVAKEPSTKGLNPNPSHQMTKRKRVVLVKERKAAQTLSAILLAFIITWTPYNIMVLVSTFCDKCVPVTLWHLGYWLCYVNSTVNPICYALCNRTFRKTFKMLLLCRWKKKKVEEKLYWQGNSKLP
Metabotropic glutamate receptor 5, sequence (P31424 whole entry): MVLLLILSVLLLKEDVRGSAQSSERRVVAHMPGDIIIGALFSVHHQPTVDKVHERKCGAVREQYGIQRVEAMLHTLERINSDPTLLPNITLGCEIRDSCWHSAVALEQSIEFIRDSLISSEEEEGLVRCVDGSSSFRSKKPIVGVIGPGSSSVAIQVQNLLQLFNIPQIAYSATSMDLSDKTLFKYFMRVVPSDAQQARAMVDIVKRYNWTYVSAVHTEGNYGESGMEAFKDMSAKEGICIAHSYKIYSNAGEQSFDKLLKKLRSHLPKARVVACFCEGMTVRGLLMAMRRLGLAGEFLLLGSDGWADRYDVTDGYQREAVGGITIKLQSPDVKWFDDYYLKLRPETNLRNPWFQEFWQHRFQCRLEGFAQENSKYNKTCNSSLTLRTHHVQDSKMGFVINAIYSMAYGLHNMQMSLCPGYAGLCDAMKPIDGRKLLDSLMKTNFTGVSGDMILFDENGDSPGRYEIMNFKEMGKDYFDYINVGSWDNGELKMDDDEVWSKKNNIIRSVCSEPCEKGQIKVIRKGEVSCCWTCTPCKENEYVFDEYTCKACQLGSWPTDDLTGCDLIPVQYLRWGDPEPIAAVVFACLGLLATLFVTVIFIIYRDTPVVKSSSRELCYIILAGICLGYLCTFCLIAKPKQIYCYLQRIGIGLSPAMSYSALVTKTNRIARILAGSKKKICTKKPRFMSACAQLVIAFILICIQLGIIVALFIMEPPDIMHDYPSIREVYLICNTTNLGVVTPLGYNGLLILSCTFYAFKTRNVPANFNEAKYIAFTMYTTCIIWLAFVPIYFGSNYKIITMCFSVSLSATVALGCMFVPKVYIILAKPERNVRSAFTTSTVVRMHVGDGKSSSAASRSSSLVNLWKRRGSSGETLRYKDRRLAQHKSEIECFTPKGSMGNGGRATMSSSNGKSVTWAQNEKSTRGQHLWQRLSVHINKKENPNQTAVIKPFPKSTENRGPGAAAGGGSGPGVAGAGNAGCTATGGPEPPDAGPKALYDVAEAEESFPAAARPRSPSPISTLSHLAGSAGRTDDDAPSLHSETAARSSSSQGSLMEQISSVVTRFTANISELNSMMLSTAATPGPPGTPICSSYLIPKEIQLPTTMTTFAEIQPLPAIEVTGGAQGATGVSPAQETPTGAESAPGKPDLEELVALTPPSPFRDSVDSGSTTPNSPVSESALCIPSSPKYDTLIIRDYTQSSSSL
DNA repair protein RAD52 homolog, sequence (P43351 whole entry): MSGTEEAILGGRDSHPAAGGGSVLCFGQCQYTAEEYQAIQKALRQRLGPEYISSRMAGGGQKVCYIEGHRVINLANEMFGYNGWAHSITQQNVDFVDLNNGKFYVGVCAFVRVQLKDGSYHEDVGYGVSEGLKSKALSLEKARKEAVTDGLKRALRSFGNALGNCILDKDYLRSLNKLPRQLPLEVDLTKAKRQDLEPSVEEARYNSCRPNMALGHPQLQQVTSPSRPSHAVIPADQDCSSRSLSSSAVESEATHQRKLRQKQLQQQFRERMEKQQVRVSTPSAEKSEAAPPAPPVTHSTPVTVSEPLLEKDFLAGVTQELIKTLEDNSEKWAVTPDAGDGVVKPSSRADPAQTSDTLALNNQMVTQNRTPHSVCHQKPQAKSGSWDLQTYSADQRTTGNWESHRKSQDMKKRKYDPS

SMILES: COc1ccc(C#Cc2ccc3c(c2)O[C@@H](CN(C)C(C)=O)[C@@H](C)CN([C@H](C)CO)S3(=O)=O)cc1
- AC50 [1]: 17.8 µM (active)
- AC50 (HeLa [2]): > 52 µM (inactive)
- AC50 (HEK293): 17.8 µM (active)

SMILES: COc1ccc(C#Cc2ccc([C@H]3[C@H](CO)N4CCCCN(C(=O)Nc5ccccc5)C[C@@H]34)cc2)cc1
- AC50 [3]: 6 µM (active)
- AC50 [4]: 10 µM (active)

SMILES: O=C1C(=O)N(CCOc2ccc(Br)cc2)c2ccc(OC(F)(F)F)cc21
- EC50 [5]: 1.45 µM (active)

SMILES: O=C(NNC(=S)Nc1ccc(Br)cc1Cl)c1ccco1
- IC50 [6]: > 122 µM (inactive)

SMILES: CCN(CC)c1cc(NC(=O)c2cccc(C#N)c2)ncn1
- IC50 (Protein Wnt-3a [7]): > 21.8 µM (inactive)

SMILES: CS(=O)(=O)N(CC(=O)NCC1CC1)c1cc(C(F)(F)F)ccc1Cl
- EC50 [8]: 298 nM

SMILES: O=C(NCC1CC1)c1ccc2c3n(nc2c1)-c1ccccc1CO3
- AC50 [9]: 26 µM (active)
- CC50 [10]: > 40 µM (active)

SMILES: COc1cccc(S(=O)(=O)Nc2ccc3c(c2)[C@H]2C[C@H](CC(=O)NCc4ccc(Cl)cc4)O[C@@H](CO)[C@H]2O3)c1
- AC50 [11]: > 70 µM (inactive)
- AC50 [12]: 1.29 µM (active)
- AC50 [13]: 67 µM (active)
- AC50 [14]: 9.17 µM (active)
- AC50 [15]: 19.4 µM (active)

SMILES: CC(C)N1C[C@H](C)[C@@H](CN(C)Cc2ccc(Oc3ccccc3)cc2)Oc2c(cccc2-c2nnc(-c3ccncc3)o2)C1=O
- AC50 [16]: 116 nM (active)

SMILES: COc1ccc(CCNc2c3ccccc3nc3ccccc23)cc1OC
- IC50 [17]: 2.4 µM (active)

SMILES: CC(C)N1C[C@H](C)[C@@H](CN(C)C(=O)OC(C)(C)C)Oc2c(C(=O)Nc3ccncc3)cccc2C1=O
- IC50 [18]: > 20 µM (inactive)

SMILES: COc1ccc2[nH]c3c(C)c4cc[n+](C)cc4c(C)c3c2c1
- GI50 (P388/ADR): 55.8 µM (inactive)
- CC50 [19]: 100 µM (active)
- AC50 (HeLa [20]): 65.2 µM (active)
- IC50 [21]: > 66.6 µM (inactive)
- GI50 (SN12K1): 203 nM (active)
- AC50 [22]: < 150 nM (active)
- GI50 (P388): 773 nM (active)
- IC50 [23]: 24.7 µM (active)
- IC50 [24]: 9.55 µM (active)

SMILES: CC(C)OC(=O)C(C(=O)C(F)(F)F)c1cc(NS(=O)(=O)c2ccccc2)c2ccccc2c1O (stereo not given)
- AC50 [25]: 40.4 µM (active)

SMILES: COc1ccccc1CN1CC[C@H]2[C@H](CO)Nc3ccc(C#Cc4ccccc4)cc3[C@H]21
- AC50 (HeLa [2]): 10.2 µM (active)
- AC50 [26]: 11.4 µM (active)
- AC50 [27]: > 60 µM (inactive)
- AC50 [28]: 1.45 µM (active)

SMILES: O=C(Cn1cnc2ccccc21)Nc1cccc(S(=O)(=O)N2CCCC2)c1
- AC50 [29]: 2.77 µM (active)
- IC50 (Protein Wnt-3a [30]): 13.1 µM (active)
- AC50 [31]: 10.1 µM (active)
- AC50 [32]: 2.61 µM (active)
- AC50 [33]: 1.79 µM (active)
- AC50 [34]: 50.5 µM (active)

SMILES: Cc1cc(C)c(S(=O)(=O)Nc2cc(SCC(=O)O)c(O)c3ccccc23)c(C)c1
- CC50 [35]: 9.03 µM (active)
